Source: the kinase profiling compilation of Christmann-Franck et al. (2016)

Experiments:
Assay in all cases: radiometric filter-binding kinase assay, Kinase HotSpot
Conditions in all cases: compound 0.5 µM; ATP 10 µM
BRSK2 (human) = BRSK2 (human) (UniProt Q8IWQ3)
STK16 (human) = STK16 (human) (UniProt O75716)
PRKD3 (human) = PRKD3 (human) (UniProt O94806)
DYRK3 (human) = DYRK3 (human) (UniProt O43781)
CLK2 (human) = CLK2 (human) (UniProt P49760)
MAP3K14 (human) = MAP3K14 (human) (UniProt Q99558)
LTK (human) = LTK (human) (UniProt P29376)
PLK2 (human) = PLK2 (human) (UniProt Q9NYY3)
CDK4 CCND1 (human) = CDK4 CCND1 (human) (UniProt P24385+P11802)
ADRBK1 (human) = ADRBK1 (human) (UniProt P25098)
TSSK1B (human) = TSSK1B (human) (UniProt Q9BXA7)
MAP2K2 (human) = MAP2K2 (human) (UniProt P36507)
SIK2 (human) = SIK2 (human) (UniProt Q9H0K1)
EPHB1 (human) = EPHB1 (human) (UniProt P54762)
RPS6KB1 (human) = RPS6KB1 (human) (UniProt P23443)
AKT3 (human) = AKT3 (human) (UniProt Q9Y243)
CSNK1E (human) = CSNK1E (human) (UniProt P49674)
DDR2 (human) = DDR2 (human) (UniProt Q16832)
ROCK1 (human) = ROCK1 (human) (UniProt Q13464)
PAK6 (human) = PAK6 (human) (UniProt Q9NQU5)
BLK (human) = BLK (human) (UniProt P51451)
CSNK1G1 (human) = CSNK1G1 (human) (UniProt Q9HCP0)
CAMK1 (human) = CAMK1 (human) (UniProt Q14012)
HIPK1 (human) = HIPK1 (human) (UniProt Q86Z02)
PAK3 (human) = PAK3 (human) (UniProt O75914)
ALK (human) = ALK (human) (UniProt Q9UM73)
IRAK4 (human) = IRAK4 (human) (UniProt Q9NWZ3)
MUSK (human) = MUSK (human) (UniProt O15146)
ROCK2 (human) = ROCK2 (human) (UniProt O75116)
STK17A (human) = STK17A (human) (UniProt Q9UEE5)
CHEK1 (human) = CHEK1 (human) (UniProt O14757)
STK4 (human) = STK4 (human) (UniProt Q13043)
MAP2K1 (human) = MAP2K1 (human) (UniProt Q02750)
MAPK11 (human) = MAPK11 (human) (UniProt Q15759)
[1] = test system: MAP2K6 (human), P52564 [S207E/T211E]
PRKCI (human) = PRKCI (human) (UniProt P41743)
OXSR1 (human) = OXSR1 (human) (UniProt O95747)
MAP3K10 (human) = MAP3K10 (human) (UniProt Q02779)
MAP3K8 (human) = MAP3K8 (human) (UniProt P41279)
IKBKE (human) = IKBKE (human) (UniProt Q14164)
PTK2B (human) = PTK2B (human) (UniProt Q14289)
SRC (human) = SRC (human) (UniProt P12931)

Chain of IKBKE (human) (Q14164 whole entry, looked up): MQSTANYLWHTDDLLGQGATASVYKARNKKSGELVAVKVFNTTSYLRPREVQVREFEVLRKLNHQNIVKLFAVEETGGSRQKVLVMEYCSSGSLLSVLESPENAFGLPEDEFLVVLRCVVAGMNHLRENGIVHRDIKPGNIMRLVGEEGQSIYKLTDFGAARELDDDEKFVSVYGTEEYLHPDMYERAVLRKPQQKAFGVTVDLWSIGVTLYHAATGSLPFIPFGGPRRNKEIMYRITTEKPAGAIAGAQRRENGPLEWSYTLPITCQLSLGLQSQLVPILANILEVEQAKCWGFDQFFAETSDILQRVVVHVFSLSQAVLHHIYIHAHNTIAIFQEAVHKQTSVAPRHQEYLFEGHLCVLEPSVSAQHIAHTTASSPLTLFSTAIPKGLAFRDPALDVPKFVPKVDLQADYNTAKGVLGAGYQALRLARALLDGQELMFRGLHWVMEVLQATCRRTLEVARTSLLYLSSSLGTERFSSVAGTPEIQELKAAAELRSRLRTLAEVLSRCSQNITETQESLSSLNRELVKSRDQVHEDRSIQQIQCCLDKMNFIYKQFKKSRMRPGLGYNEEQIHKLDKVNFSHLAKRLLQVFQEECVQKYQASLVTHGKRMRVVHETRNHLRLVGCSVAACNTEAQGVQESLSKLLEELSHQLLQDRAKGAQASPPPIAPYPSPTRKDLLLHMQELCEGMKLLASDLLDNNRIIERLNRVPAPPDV
Chain of RPS6KB1 (human) (P23443 whole entry, looked up): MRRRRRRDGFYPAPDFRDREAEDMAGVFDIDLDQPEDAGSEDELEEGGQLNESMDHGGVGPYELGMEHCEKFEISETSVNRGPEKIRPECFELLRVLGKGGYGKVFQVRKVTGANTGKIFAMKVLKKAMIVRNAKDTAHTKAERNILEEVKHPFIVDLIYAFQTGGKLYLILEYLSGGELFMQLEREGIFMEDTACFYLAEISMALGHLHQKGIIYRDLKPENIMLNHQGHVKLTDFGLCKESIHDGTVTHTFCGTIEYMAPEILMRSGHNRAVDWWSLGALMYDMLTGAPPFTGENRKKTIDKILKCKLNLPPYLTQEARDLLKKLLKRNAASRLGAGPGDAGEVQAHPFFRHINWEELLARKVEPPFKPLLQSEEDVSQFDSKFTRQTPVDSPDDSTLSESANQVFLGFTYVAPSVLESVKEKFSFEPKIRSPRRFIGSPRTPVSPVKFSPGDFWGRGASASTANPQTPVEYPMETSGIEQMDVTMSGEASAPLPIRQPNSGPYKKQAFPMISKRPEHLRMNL
Chain of BRSK2 (human) (Q8IWQ3 whole entry, looked up): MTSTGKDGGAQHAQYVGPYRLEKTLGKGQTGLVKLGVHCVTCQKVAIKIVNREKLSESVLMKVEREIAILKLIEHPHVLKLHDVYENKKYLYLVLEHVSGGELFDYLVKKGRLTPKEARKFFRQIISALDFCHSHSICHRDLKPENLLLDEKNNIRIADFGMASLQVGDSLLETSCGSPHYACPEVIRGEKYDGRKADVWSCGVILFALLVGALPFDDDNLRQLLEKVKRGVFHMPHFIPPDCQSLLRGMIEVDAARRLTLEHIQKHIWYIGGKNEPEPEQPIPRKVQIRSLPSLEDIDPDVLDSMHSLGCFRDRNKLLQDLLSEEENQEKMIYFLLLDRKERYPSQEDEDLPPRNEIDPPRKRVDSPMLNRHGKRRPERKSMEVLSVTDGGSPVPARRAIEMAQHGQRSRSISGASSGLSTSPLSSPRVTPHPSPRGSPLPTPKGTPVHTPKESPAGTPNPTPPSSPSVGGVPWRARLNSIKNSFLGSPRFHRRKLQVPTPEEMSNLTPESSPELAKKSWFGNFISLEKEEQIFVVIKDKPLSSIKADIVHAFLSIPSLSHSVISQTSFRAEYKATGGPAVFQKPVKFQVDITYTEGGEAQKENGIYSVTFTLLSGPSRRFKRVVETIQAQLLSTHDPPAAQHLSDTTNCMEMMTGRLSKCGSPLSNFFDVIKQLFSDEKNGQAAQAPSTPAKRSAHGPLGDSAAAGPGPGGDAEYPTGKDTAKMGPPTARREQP
Chain of ROCK2 (human) (O75116 whole entry, looked up): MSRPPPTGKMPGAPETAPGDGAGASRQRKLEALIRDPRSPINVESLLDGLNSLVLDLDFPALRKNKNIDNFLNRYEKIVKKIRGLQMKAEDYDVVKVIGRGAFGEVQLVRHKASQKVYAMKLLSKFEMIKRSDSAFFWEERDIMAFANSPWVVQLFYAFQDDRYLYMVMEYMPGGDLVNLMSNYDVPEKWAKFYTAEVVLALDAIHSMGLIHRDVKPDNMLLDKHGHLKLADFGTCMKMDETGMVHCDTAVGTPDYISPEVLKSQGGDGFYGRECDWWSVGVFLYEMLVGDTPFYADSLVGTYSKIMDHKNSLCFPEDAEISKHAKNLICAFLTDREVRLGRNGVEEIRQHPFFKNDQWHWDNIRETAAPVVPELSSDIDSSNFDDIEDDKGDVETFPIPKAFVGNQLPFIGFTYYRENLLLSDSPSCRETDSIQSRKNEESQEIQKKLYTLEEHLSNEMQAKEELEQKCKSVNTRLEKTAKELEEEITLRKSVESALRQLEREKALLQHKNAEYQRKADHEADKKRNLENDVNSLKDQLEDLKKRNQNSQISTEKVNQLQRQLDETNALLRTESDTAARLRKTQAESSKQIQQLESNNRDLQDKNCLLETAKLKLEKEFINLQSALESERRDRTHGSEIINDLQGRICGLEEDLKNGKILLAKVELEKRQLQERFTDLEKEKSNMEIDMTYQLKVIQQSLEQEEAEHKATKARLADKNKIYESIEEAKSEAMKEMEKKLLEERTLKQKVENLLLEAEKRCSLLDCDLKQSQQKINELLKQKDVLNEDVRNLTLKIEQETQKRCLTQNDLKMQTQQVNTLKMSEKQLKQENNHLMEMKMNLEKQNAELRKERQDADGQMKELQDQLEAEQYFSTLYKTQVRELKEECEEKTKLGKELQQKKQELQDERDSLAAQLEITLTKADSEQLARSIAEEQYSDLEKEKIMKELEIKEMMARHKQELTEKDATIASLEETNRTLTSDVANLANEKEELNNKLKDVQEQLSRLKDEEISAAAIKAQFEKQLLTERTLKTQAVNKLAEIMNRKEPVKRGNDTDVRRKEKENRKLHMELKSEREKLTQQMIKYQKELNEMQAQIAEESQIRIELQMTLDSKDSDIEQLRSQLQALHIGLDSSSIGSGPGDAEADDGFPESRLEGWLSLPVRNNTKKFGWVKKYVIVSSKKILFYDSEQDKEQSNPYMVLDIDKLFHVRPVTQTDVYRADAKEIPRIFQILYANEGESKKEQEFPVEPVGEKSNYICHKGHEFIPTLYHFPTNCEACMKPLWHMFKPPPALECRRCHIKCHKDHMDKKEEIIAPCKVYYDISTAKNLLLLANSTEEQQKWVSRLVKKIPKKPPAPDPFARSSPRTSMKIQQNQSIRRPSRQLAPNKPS
Chain of STK4 (human) (Q13043 whole entry, looked up): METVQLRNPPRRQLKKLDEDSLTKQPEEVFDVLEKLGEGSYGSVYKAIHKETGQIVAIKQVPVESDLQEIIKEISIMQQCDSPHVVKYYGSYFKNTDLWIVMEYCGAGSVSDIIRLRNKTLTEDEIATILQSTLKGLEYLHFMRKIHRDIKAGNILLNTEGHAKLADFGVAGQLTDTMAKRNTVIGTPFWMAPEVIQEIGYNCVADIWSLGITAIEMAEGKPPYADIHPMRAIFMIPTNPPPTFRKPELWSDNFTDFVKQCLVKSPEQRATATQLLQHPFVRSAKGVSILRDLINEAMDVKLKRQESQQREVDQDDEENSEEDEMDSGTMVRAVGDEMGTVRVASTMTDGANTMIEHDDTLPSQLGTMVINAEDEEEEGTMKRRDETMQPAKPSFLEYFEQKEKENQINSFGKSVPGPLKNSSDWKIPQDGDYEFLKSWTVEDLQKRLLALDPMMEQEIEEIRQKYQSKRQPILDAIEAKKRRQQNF
Chain of CSNK1E (human) (P49674 whole entry, looked up): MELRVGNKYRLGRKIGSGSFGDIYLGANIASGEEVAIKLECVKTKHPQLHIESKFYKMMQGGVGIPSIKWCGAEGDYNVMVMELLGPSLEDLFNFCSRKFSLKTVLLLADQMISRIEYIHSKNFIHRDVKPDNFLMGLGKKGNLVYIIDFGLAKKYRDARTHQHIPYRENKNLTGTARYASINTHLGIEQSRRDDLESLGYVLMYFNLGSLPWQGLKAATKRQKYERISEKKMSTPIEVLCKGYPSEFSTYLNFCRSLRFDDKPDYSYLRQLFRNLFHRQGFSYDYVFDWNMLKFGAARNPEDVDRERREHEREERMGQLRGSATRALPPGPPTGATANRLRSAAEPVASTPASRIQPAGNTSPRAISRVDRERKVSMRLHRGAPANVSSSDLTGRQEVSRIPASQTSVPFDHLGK
Chain of MAP2K2 (human) (P36507 whole entry, looked up): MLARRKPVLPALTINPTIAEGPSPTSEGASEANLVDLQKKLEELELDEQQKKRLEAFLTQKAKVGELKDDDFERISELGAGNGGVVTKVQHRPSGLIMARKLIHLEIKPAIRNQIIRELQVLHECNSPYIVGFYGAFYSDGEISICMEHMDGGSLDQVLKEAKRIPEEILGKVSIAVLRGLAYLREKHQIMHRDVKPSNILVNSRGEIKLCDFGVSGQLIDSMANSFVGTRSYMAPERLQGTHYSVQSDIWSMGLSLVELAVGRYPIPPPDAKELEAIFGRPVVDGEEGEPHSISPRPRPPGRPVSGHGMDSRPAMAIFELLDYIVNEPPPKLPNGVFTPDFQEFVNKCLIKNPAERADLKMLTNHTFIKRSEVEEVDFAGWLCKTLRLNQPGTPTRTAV
Chain of MAPK11 (human) (Q15759 whole entry, looked up): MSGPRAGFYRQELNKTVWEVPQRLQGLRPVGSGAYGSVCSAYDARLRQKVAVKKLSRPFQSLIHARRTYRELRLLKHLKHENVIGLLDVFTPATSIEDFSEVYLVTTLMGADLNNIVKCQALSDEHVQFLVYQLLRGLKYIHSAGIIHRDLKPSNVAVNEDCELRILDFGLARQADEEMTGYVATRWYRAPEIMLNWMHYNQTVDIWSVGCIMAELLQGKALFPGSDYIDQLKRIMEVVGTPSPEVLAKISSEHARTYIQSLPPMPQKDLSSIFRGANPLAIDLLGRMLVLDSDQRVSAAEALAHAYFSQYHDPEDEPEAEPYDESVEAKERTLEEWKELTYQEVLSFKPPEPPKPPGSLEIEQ

For `COc1ccc(C(=O)Nc2sc3c(c2C(N)=O)CCCC3)cc1OC`, the residual activity (BRSK2 (human)) was 97.9%, the residual activity (STK16 (human)) was 106% and the residual activity (PRKD3 (human)) was 103%. The residual activity (DYRK3 (human)) was 98%, the residual activity (CLK2 (human)) was 86.5% and the residual activity (MAP3K14 (human)) was 88%. It also gave a residual activity (LTK (human)) of 40.5%, a residual activity (PLK2 (human)) of 106% and a residual activity (CDK4 CCND1 (human)) of 95.9%. The residual activity (ADRBK1 (human)) was 96.8%, the residual activity (TSSK1B (human)) was 115% and the residual activity (MAP2K2 (human)) was 95.3%. The residual activity (SIK2 (human)) was 102%, the residual activity (EPHB1 (human)) was 95% and the residual activity (RPS6KB1 (human)) was 84.3%. The residual activity (AKT3 (human)) was 102%, the residual activity (CSNK1E (human)) was 94% and the residual activity (DDR2 (human)) was 102%. It also gave a residual activity (ROCK1 (human)) of 107%, a residual activity (PAK6 (human)) of 85.7% and a residual activity (BLK (human)) of 102%. For the same compound, the residual activity (CSNK1G1 (human)) was 90.1%, the residual activity (CAMK1 (human)) was 90.9% and the residual activity (HIPK1 (human)) was 90.2%. For the same compound, the residual activity (PAK3 (human)) was 96.2%, the residual activity (ALK (human)) was 66.2% and the residual activity (IRAK4 (human)) was 94.8%. For the same compound, the residual activity (MUSK (human)) was 79.4%, the residual activity (ROCK2 (human)) was 92.3% and the residual activity (STK17A (human)) was 98.5%. It also gave a residual activity (CHEK1 (human)) of 112%, a residual activity (STK4 (human)) of 104% and a residual activity (MAP2K1 (human)) of 99.1%. The residual activity (MAPK11 (human)) was 104%, the residual activity [1] was 114% and the residual activity (PRKCI (human)) was 91.8%. For the same compound, the residual activity (OXSR1 (human)) was 99.9%, the residual activity (MAP3K10 (human)) was 96.6% and the residual activity (MAP3K8 (human)) was 106%. It also gave a residual activity (IKBKE (human)) of 106%, a residual activity (PTK2B (human)) of 95.5% and a residual activity (SRC (human)) of 100%.

With `Cc1cncc2cccc(S(=O)(=O)N3CCCN(C(=O)CN)C[C@H]3C)c12` the residual activity (BRSK2 (human)) was 85.4%, the residual activity (STK16 (human)) was 97.9% and the residual activity (PRKD3 (human)) was 85.4%. For the same compound, the residual activity (DYRK3 (human)) was 107%, the residual activity (CLK2 (human)) was 102% and the residual activity (MAP3K14 (human)) was 109%. It also gave a residual activity (LTK (human)) of 93%, a residual activity (PLK2 (human)) of 101% and a residual activity (CDK4 CCND1 (human)) of 114%. For the same compound, the residual activity (ADRBK1 (human)) was 101%, the residual activity (TSSK1B (human)) was 103% and the residual activity (MAP2K2 (human)) was 106%. The residual activity (SIK2 (human)) was 89.4%, the residual activity (EPHB1 (human)) was 88.7% and the residual activity (RPS6KB1 (human)) was 93.3%. For the same compound, the residual activity (AKT3 (human)) was 98.8%, the residual activity (CSNK1E (human)) was 100% and the residual activity (DDR2 (human)) was 103%. The residual activity (ROCK1 (human)) was 3.44%, the residual activity (PAK6 (human)) was 108% and the residual activity (BLK (human)) was 97.7%. The residual activity (CSNK1G1 (human)) was 92.4%, the residual activity (CAMK1 (human)) was 102% and the residual activity (HIPK1 (human)) was 99.1%. For the same compound, the residual activity (PAK3 (human)) was 105%, the residual activity (ALK (human)) was 113% and the residual activity (IRAK4 (human)) was 109%. The residual activity (MUSK (human)) was 88.7%, the residual activity (ROCK2 (human)) was 3.22% and the residual activity (STK17A (human)) was 93.5%. The residual activity (CHEK1 (human)) was 100%, the residual activity (STK4 (human)) was 95.4% and the residual activity (MAP2K1 (human)) was 94.9%. For the same compound, the residual activity (MAPK11 (human)) was 101%, the residual activity [1] was 107% and the residual activity (PRKCI (human)) was 87.4%. It also gave a residual activity (OXSR1 (human)) of 99.4%, a residual activity (MAP3K10 (human)) of 105% and a residual activity (MAP3K8 (human)) of 99.9%. It also gave a residual activity (IKBKE (human)) of 95%, a residual activity (PTK2B (human)) of 92.5% and a residual activity (SRC (human)) of 93.6%.

Work on `COc1ccc2c(c1)c(C1=C(c3c[nH]c4ccccc34)C(=O)NC1=O)cn2CCCN(C)C` yielded a residual activity (BRSK2 (human)) of 61.3%, a residual activity (STK16 (human)) of 93.1% and a residual activity (PRKD3 (human)) of 91.9%. It also gave a residual activity (DYRK3 (human)) of 81%, a residual activity (CLK2 (human)) of 78% and a residual activity (MAP3K14 (human)) of 79.2%. It also gave a residual activity (LTK (human)) of 81.9%, a residual activity (PLK2 (human)) of 103% and a residual activity (CDK4 CCND1 (human)) of 78.6%. For the same compound, the residual activity (ADRBK1 (human)) was 99%, the residual activity (TSSK1B (human)) was 80.3% and the residual activity (MAP2K2 (human)) was 103%. It also gave a residual activity (SIK2 (human)) of 103%, a residual activity (EPHB1 (human)) of 91.7% and a residual activity (RPS6KB1 (human)) of 19.7%. For the same compound, the residual activity (AKT3 (human)) was 63.7%, the residual activity (CSNK1E (human)) was 86.4% and the residual activity (DDR2 (human)) was 101%. It also gave a residual activity (ROCK1 (human)) of 93.5%, a residual activity (PAK6 (human)) of 70.4% and a residual activity (BLK (human)) of 78.8%. It also gave a residual activity (CSNK1G1 (human)) of 84.1%, a residual activity (CAMK1 (human)) of 90.2% and a residual activity (HIPK1 (human)) of 77.7%. The residual activity (PAK3 (human)) was 105%, the residual activity (ALK (human)) was 96% and the residual activity (IRAK4 (human)) was 91.2%. It also gave a residual activity (MUSK (human)) of 53.5%, a residual activity (ROCK2 (human)) of 89.2% and a residual activity (STK17A (human)) of 84%. The residual activity (CHEK1 (human)) was 88.8%, the residual activity (STK4 (human)) was 65.2% and the residual activity (MAP2K1 (human)) was 85%. It also gave a residual activity (MAPK11 (human)) of 96.7%, a residual activity [1] of 91.6% and a residual activity (PRKCI (human)) of 67.6%. For the same compound, the residual activity (OXSR1 (human)) was 97.7%, the residual activity (MAP3K10 (human)) was 83.4% and the residual activity (MAP3K8 (human)) was 93.8%. The residual activity (IKBKE (human)) was 100%, the residual activity (PTK2B (human)) was 104% and the residual activity (SRC (human)) was 79.8%.
